In patent US6166076A, “Taste enhancing food additives” (Board of Supervisors of Louisiana State University and …, priority 1997, dated 2000):
Entries after “also recorded” stand apart in the source; their conditions may differ.

What was measured:
[1] = tested on: delayed rectifying K^+ channels; assay: patch clamp, delayed rectifying K^+ channels of TRCs isolated from S5B/P1 rats; type: cell-based; conditions: for inhibition of the delayed rectifying K^+ channels, S5B/P1 rats: TRCs from S5B/P1 rats; for sensitivity of S5B/P1 TRCs to inhibition compared with O-M TRCs: 10 μM, versus TRCs from O-M rats
Source text: (§1) To determine if there is a link between the sensitivity of TRCs to PUFAs and dietary fat preferences, the PUFA-sensitivities of TRCs using patch clamp techniques were compared on TRCs isolated from Osborne-Mendel ("O-M") rats and S5B/P1 rats, strains with different dietary preferences. O-M rats prefer fat over carbohydrate, while S5B/P1 rats prefer carbohydrate over fat. […] Rats whose TRCs were more sensitive to the fatty acids have a preference for a lower-fat diet; while rats whose TRCs are less sensitive to fatty acids seek diets that are higher in fat.

[2] = tested on: delayed rectifying K^+ channels; assay: patch clamp, delayed rectifying K^+ channels of TRCs isolated from Osborne-Mendel rats; type: cell-based
Source text: as §1

[3] = tested on: outward K^+ currents in rat fungiform taste receptor cells; assay: whole-cell patch clamp, total outward voltage-activated currents in rat fungiform taste receptor cells; type: cell-based, rat (Sprague-Dawley)
Source text: (§2) The effects of free fatty acids ("FFAs") on taste buds isolated from rat fungiform papillae were examined to determine if a chemosensory (i.e. non-textural) cue for fats is located in the mouth. The methods used to isolate TRCs were generally as described in Behe et al., "Membrane Currents in Taste Cells of the Rat Fungiform Papilla: Evidence for Two Types of Ca Currents and Inhibition of K Currents by Saccharin," Journal of General Physiology, Vol. 96, pp. 1061-1084 (1990); Doolin et al., "Distribution and Characterization of Functional Amiloride-sensitive Sodium Channels in Rat Tongue," Journal of General Physiology, Vol. 107. pp. 545-554 (1996); and Gilbertson et al., "Proton Currents Through Amiloride-sensitive Na^+ Channels in Isolated Hamster Taste Cells: Enhancement by Vasopressin and cAMP," Neuron, Vol. 10, pp. 931-942 (1993).
Individual fungiform taste buds were isolated from the tongues of 2- to 5-month-old male Sprague-Dawley rats (Harlan Sprague Dawley, Indianapolis,Ind.). Animals were housed individually in polycarbonate cages with food (Purina #5001, Purina Mills, St. Louis, Mo.) provided ad lib. The room containing the rats was maintained at 21-23° C. on a 0700-1900 h light-dark cycle. […]

[4] = tested on: delayed rectifier K^+ channel; assay: whole-cell patch clamp, delayed rectifier K^+ channel (steady-state outward K^+ current at +40 mV) in rat fungiform taste receptor cells; type: cell-based, rat (Sprague-Dawley); conditions: for effect on outward K^+ currents, specificity test: 10 μM, >10 min (maximal effect), significance by paired t test; for stimulation of taste receptor cells: summary statement
Source text: as §2
(§3) Individual fungiform taste buds were isolated from the tongues of 2- to 5-month-old male Sprague-Dawley rats (Harlan Sprague Dawley, Indianapolis,Ind.). Animals were housed individually in polycarbonate cages with food (Purina #5001, Purina Mills, St. Louis, Mo.) provided ad lib. The room containing the rats was maintained at 21-23° C. on a 0700-1900 h light-dark cycle. All animal care and experimental procedures were in accordance with National Institutes of Health guidelines, and were approved by the Institutional Animal Care and Use Committee of the Pennington Biomedical Research Center.
(§4) Tongues were removed from euthanized rats, and were immediately placed in ice-cold Tyrode's solution. To remove the lingual epithelium containing the taste buds from the underlying muscle layer, approximately 1.0 ml of Tyrode's solution containing 0.3 mg/ml collagenase A (Boehringer Mannheim Corp., Indianapolis, Ind.), 2.5 mg/ml dispase (grade II; Boehringer Mannheim) and 1.0 mg/ml trypsin inhibitor (type I-S; Sigma Chemical Co., St. Louis, Mo.) was injected below the epithelium. The injected tongue was placed in Ca--Mg free Tyrode's solution and bubbled with O2 for 33-35 min. The lingual epithelium was removed and pinned serosal side up, allowing access to the taste buds. Fungiform taste buds were removed individually by gentle suction with a large, firepolished pipette (~200 μm diameter), and were plated onto Cell-Tak™-coated microscope slides (Collaborative Biomedical Prod., Bedford, Mass.) fitted with an O-ring which served as a recording chamber. Once plated, cells were perfused continually with Tyrode's or various test solutions. Taste buds isolated in this manner were used for up to 6 hours without any noticeable morphological or physiological decrement.
(§5) All chemicals were obtained from Sigma Chemical Corporation (St. Louis, Mo.) unless otherwise indicated. Normal extracellular solution (Tyrode's) contained (in mM): NaCl, 140; KCl, 5; CaCl2, 1; MgCl2, 1; HEPES (N-[2-hydroxyethyl] piperazine-N'-[2-ethanesulfonic acid), 10; glucose, 10; and sodium pyruvate, 10. The pH was adjusted to 7.40 with NaOH. In Ca^2+ --Mg^2+ free Tyrode's solution, 2 mM BAPTA (1,2-bis(2-aminophenoxy) ethane-N,N,N',N'-tetraacetic acid) (Molecular Probes, Eugene, Oreg.) replaced CaCl2 and MgCl2. Other components were identical to Tyrode's solution. Intracellular (pipette) solution contained (in mM): KCl, 140; CaCl2, 1 [free Ca^2+ was ~10^-8 M]; MgCl2, 2; HEPES, 10; EGTA (ethylene glycol-bis(β-aminoethylether)-N,N,N',N'-tetraacetic acid), 11; and ATP, 3. The pH was adjusted to 7.20 with KOH.
(§6) Free fatty acids (FFAs) were stored below -20° C. until the day of use, when they were dissolved in warm ethanol and diluted to final working concentrations in Tyrode's solution. Final ethanol concentrations in Tyrode's were below 0.1%; the ethanol had no effect on ionic currents in any TRCs. All FFAs were applied by bath perfusion. In some experiments, FFA-containing solutions were bubbled continuously with nitrogen to retard oxygenation. […]

[5] = tested on: inwardly rectifying K^+ channels (Kir); assay: whole-cell patch clamp, inwardly rectifying K^+ channels (Kir) at -130 mV in rat fungiform taste receptor cells; type: cell-based, rat (Sprague-Dawley); conditions: n=5 cells
Source text: as §2, §3, §4, §5, §6

[6] = tested on: rat fungiform taste receptor cells; assay: current clamp, stimulus-induced depolarization of rat fungiform taste receptor cells; type: cell-based, rat (Sprague-Dawley)
Method: Voltage-activated currents were recorded from individual taste receptor cells maintained in the taste bud using the whole-cell patch clamp configuration, as generally described in Hamill et al., "Improved Patch-clamp Techniques for High-resolution Current Recording from Cells and Cell-free Membrane Patches," Pflugers Arch., Vol. 391, pp. 85-100 (1981). Patch pipettes were made by pulling mlcrohematocrit tubes (Scientific Products, McGaw Park, Ill.) on a Flaming/Brown micropipette puller (model P-97; Sutter Instrument Co., Novato, Calif.), and subsequently firepolishing on a microforge (model MF-9; Narishige, Tokyo) to a resistance between 5 and 10 M.OMEGA. when filled with intracellular solution.
Since arachidonic acid and linoleic acid inhibit K^+ currents in TRCs and these channels play crucial roles in repolarizing the cells following activity, the presence of such FFAs should affect how these cells respond during stimulus-induced activity. This prediction was tested in cells in current clamp mode during perfusion of saline, both in the absence and presence of 10 μM linoleic acid. In response to current injection (+18 pA), TRCs typically fired 0-3 action potentials, followed by a sustained depolarization lasting as long as the stimulus was present. […] On average, the sustained depolarization during current injection (18 pA) in the rat fungiform taste receptor cells was 22.4±8.5 mV during perfusion of physiological saline (n=7 cells). Addition of 10 μM linoleic acid to the perfusate of the same cells increased the mean voltage response to 36.8±9.2 mV (n=7), an increase of 64%.

With `CCCCCCCCCCCC(=O)O` [lauric acid, reference compound] the “inhibition of the delayed rectifying K^+ channels, S5B/P1 rats” value (from here on “inhibition … S5B/P1 rats”) [1] was “ineffective” and the “inhibition of the delayed rectifying K^+ channels, O-M rats” value (“inhibition … O-M rats” for short) [2] was “ineffective”.
Compound `CC(C)(C(=O)c1cccnc1)c1cccnc1` [metyrapone] has an inhibition at 1000 µM ([3]; Rattus norvegicus, 1 mM, n=6 cells, read-out: inhibition of the outward current by metyrapone alone) of 23.8 ± 9.7%.
In the case of `CCCCCC/C=C\CCCCCCCC(=O)O` [palmitoleic acid, reference compound], the “effect on outward K^+ currents, specificity test” value (from here on “effect … specificity test”) [4] is reported as “did not have significant effects”.
With `CCCCC/C=C/C/C=C/CCCCCCCC(=O)O` [linolelaidic acid, reference compound] the “effect … specificity test” value [4] was “did not significantly affect outward K^+ currents” and the “effect … specificity test” value ([4]; listed as linolelaidic) was “no effect on outward K^+ currents”.
With `O=S(=O)(c1cccc2cnccc12)N1CCNCC1` [HA-100, reference compound] the “effect of PKC/PKA inhibitor on linoleic acid-induced inhibition of outward K^+ currents” value ([4]; 25 μM, intracellular, n=6 cells) was “did not prevent linoleic acid-induced inhibition of outward K^+ currents”.
With `Nc1nc2c(ncn2[C@@H]2O[C@H](COP(=O)(O)OP(O)(O)=S)[C@@H](O)[C@H]2O)c(=O)[nH]1` [guanosine 5'-O-(2-thiodiphosphate), reference compound] the “effect of G protein inhibitor on FFA effects on outward currents” value ([4]; 0.5 mM in the patch pipette, n=5) was “did not inhibit the effects of FFA on outward currents”.
With `CCCCC/C=C\C/C=C\C/C=C\C/C=C\CCCC(=O)OC` [arachidonic acid methyl ester] the “modulation of TRC K^+ currents by esterified fatty acid” value ([3]; arachidonic acid methyl ester: n=5 cells) was “ineffective”.
For `CCCCCCCC/C=C\CCCCCCCC(=O)O` [oleic acid, reference compound], the “effect … specificity test” value [4] was “did not have significant effects” and the “enhancement of Kir” value [5] was “did not enhance Kir”.
For linolenic acid, the “sensitivity of S5B/P1 TRCs to inhibition compared with O-M TRCs” value [1] was “significantly more sensitive to inhibition”, the “inhibition … S5B/P1 rats” value [1] was “inhibited the delayed rectifying K^+ channels in a concentration-dependent manner” and the “effect … specificity test” value [4] was “significantly reduced outward K^+ currents”. The “stimulation of taste receptor cells” value [4] was “stimulate taste receptor cells” and the “inhibition … O-M rats” value [2] was “inhibited the delayed rectifying K^+ channels in a concentration-dependent manner”.
With `CC/C=C/C/C=C/C/C=C/CCCCCCCC(=O)O` [linolenelaidic acid, reference compound] the “effect … specificity test” value [4] was “no effect on outward K^+ currents; also recorded: did not significantly affect outward K^+ currents”.
`CCCCCCCC/C=C\CCCCCCCCCCCC(=O)O` [erucic acid, reference compound] was tested, and the “effect … specificity test” value [4] was “did not have significant effects”.
`CCCCCCCC/C=C\CCCCCCCCCCCCCC(=O)O` [nervonic acid, reference compound] was tested, and the “effect … specificity test” value [4] was “did not have significant effects”.
With `CCCCC/C=C\C/C=C\CCCCCCCC(=O)O` [linoleic acid] the “effect on stimulus-induced depolarization (in words)” value ([6]; 10 μM linoleic acid) was “significantly enhanced stimulus-induced depolarization of TRCs; also recorded: increase in the magnitude of stimulus-induced depolarization of taste receptor cells; also recorded: prolonged "tail" potential following termination of the stimulus”, the “sustained depolarization during current injection (mean voltage response)” value ([6]; 10 μM linoleic acid, 18 pA, n=7 cells, saline 22.4±8.5 mV) was 36.8±9.2 mV and the activation at 10 µM ([6]; Rattus norvegicus, 10 μM, 18 pA, n=7, read-out: increase of mean voltage response over saline) was 64%. For the same compound, the “sensitivity of S5B/P1 TRCs to inhibition compared with O-M TRCs” value [1] was “significantly more sensitive to inhibition”, the “inhibition … S5B/P1 rats” value [1] was “inhibited the delayed rectifying K^+ channels in a concentration-dependent manner” and the “effect of intracellular application on outward K^+ currents” value ([4]; 10 μM in the pipette (intracellular) solution, up to 30 min or more) was “no effect”. The “effect … specificity test” value [4] was “significantly reduced outward K^+ currents”, the “effect on outward K^+ currents on subsequent extracellular addition” value ([4]; linoleic acid also in pipette, added extracellularly, n=11 cells) was “outward K^+ currents were inhibited” and the “inhibition of outward K^+ currents in metyrapone-treated TRCs” value ([4]; metyrapone 1 mM, 15 min, n=6 cells) was “still inhibited by linoleic acid in a quantitatively similar fashion”. The “stimulation of taste receptor cells” value [4] was “stimulate taste receptor cells”, the “relative potency among the FFAs tested” value ([4]; trend in effects on both types of K^+ currents) was “the most potent of the FFAs tested” and the “inhibition … O-M rats” value [2] was “inhibited the delayed rectifying K^+ channels in a concentration-dependent manner”.
